Legend:
[1] = system: AtT-20 pituitary corticotroph tumor cells; experiment: ACTH production and POMC expression in AtT-20 cells; format: cell-based, mouse; conditions: pterostilbene 15 μM
Procedure: FIG. 3. Pterostilbene bioavailability in brain and the pituitary gland, and its effect on ACTH synthesis and POMC expression in AtT-20 cells. […] (B) Effect of pterostilbene on ACTH production by AtT-20 cells in a 24 h-period (measured between 24-48 h or between 48-72 h). […] After the 30 min period, culture flasks were washed out (three times with PBS) and the medium was renewed (controls received identical treatment).
Plasma levels of ACTH (Calbiotech, Inc., Spring Valley, Calif.), corticosterone (Kamiyama Biomedical Co., Seattle, Wash.), and NORA (IBL, Hamburg, Germany) were quantified by ELISA according to the instructions of the suppliers.
RT-PCR and detection of mRNA was performed as described above. For Western blotting (see also above) POMC mouse monoclonal antibody (clone 2B2) from Origen (Rockville, Md.) were used.

[2] = system: AsPC-1 cells isolated from tumor-bearing mice; experiment: Chemosensitization of cultured AsPC-1 cells isolated from xenografts; format: cell-based, human; conditions: 72 h-cultured, PL 1 μM, Chemo 0.125 μM PAC.PBP and 25 μM GTB, Pter = in vivo pretreatment
Procedure: FIGS. 18-25. Effect of piperlongumine and I-BET762, as GSH depleting and chemosensitizing agents, in in vitro growing human melanoma, pancreatic, breast, lung, liver, prostate, ovarian, and colorectal cancer cells. Cancer cells, isolated from Pter-treated tumor-bearing mice, were cultured as indicated under Methods. Chemotherapy (0.25 μM PAC.PBP in A2058 melanoma and MDA-MB-231 breast carcinoma cells; 0.125 μM PAC.PBP and 25 μM GTB in AsPC-1 pancreatic cancer cells; 1 μM VRB and 15 μM cisPt in A459 lung carcinoma cells; 0.15 μM DXR in HepG2 hepatocellular carcinoma cells; 15 nM DCT in PC-3 prostate carcinoma cells; 0.15 μM PAC.PBP and 25 μM CarboPt in SK-OV-3 ovarian carcinoma cells; 3 μM 5-FU, 1 μM FA and 0.6 μM IRI in HT-29 colorectal carcinoma cells) was added to the cultured flasks 24 h after seeding. […]
Human A2058, MeWo and MelJuso melanoma cells, and mouse AtT-20 pituitary corticotroph tumor cells were from the American Type Culture Collection (ATCC). […] Cell numbers were determined using a Coulter Counter (Coulter Electronic Inc., Miami, Fla.). […] Cellular viability was assessed as previously reported (Mena, S. et al. Clin Cancer Res 13, 2658-2666 (2007)), by measuring trypan blue exclusion and leakage of lactate dehydrogenase activity. […]

## COc1cc(/C=C/c2ccc(O)cc2)cc(OC)c1 [Pter, trans-3,5-dimethoxy-4′-hydroxystilbene]
[1]; 30 min every 24 h, CRH 100 nM
  ACTH production by AtT-20 cells: decreases
[1]; 72 h of culture
  POMC expression and levels in AtT-20 cells: decreased
[2]
  Viable cells: 1249 ± 206 ×10^6

— patent US11179348B2, “Combination comprising pterostilbene for the treatment of cancer” (FUNDACIÓN UNIVERSIDAD CATÓLICA DE VALENCIA SAN VICENTE …, priority 2015, dated 2021)
